Data: publication PMC9299122, “Terpene synthases in cucumber (Cucumis sativus) and their contribution to herbivore‐induced volatile terpenoid emission” (The New Phytologist, 2021)

What was measured:
Experiment in all cases: product formation, stir-bar GC-MS, recombinant E. coli protein
Assay type in all cases: cell-based
CsTPS24 = target: T1, CsTPS24 (Cucumis sativus, UniProt Q9FRX5); details: 30 °C, 60 min
T1 construct: gene CsKS1; full-length cDNA in pACYCDuet, E. coli BL21(DE3); gene on chromosome VII; predicted plastid transit peptide
T1 sequence (Q9FRX5 1-785): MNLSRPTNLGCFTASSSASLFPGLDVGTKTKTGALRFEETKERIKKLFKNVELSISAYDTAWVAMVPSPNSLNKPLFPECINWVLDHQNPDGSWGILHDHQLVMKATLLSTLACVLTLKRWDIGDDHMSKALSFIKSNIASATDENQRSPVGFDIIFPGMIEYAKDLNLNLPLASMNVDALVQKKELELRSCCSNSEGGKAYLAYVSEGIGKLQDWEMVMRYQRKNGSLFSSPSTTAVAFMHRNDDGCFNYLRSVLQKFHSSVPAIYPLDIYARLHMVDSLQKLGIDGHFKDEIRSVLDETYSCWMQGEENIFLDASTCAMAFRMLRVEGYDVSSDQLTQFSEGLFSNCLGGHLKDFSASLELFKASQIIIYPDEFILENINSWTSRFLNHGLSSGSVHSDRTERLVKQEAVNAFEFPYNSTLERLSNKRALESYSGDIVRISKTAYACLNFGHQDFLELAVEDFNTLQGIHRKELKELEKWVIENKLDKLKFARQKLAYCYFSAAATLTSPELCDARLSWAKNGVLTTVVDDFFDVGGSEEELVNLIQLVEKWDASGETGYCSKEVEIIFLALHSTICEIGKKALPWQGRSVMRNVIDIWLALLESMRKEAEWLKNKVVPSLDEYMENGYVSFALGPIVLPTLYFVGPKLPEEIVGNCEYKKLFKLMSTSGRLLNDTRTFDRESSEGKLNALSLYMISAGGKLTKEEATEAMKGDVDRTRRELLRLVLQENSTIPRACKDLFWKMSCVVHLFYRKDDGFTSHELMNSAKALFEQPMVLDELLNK

CsTPS19 = target: T2, CsTPS19 (Cucumis sativus, UniProt A0A0A0L6G4); details: 30 °C, 60 min; 10 µM substrate
T2 construct: gene Csa_3G095040; full-length cDNA in pACYCDuet, E. coli BL21(DE3); cytosolic
T2 sequence (A0A0A0L6G4 entry or part of it): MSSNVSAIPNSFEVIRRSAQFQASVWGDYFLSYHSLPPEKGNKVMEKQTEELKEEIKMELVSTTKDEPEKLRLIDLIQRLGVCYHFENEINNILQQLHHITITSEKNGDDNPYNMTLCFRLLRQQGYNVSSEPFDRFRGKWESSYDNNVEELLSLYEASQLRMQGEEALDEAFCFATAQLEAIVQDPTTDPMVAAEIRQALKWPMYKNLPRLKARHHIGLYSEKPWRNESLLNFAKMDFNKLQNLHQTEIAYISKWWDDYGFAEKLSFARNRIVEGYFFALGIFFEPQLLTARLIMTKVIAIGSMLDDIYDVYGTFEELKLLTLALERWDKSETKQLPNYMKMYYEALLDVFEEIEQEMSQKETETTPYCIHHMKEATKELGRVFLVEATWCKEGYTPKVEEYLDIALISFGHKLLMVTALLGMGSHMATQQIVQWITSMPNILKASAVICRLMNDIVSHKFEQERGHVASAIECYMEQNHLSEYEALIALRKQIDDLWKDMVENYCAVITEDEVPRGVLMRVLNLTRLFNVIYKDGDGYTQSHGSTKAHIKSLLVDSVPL

CsTPS14 = target: T3, CsTPS14 (Cucumis sativus, UniProt A0A0A0L1X6); details: 30 °C, 60 min; 10 µM substrate
T3 construct: gene Csa_3G039850; full-length cDNA in pACYCDuet, E. coli BL21(DE3); no targeting peptide predicted
T3 sequence (A0A0A0L1X6 1-562): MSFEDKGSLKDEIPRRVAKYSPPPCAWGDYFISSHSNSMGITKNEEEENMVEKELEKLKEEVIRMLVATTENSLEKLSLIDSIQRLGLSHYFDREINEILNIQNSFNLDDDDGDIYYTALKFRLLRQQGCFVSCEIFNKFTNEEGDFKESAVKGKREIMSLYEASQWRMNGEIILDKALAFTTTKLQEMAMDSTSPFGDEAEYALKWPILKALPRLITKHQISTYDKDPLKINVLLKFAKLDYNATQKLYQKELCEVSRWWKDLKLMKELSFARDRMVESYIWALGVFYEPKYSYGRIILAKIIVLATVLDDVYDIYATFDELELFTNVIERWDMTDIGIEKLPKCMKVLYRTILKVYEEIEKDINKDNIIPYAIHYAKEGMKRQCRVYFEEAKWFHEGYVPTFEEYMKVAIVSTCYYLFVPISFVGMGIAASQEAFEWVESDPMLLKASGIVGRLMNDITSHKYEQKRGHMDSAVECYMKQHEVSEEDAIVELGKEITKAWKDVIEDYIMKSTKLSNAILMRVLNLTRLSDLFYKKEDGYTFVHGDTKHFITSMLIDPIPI

CsTPS12 = target: T4, CsTPS12 (Cucumis sativus, UniProt A0A0A0LN25); details: 30 °C, 60 min; 10 µM substrate
T4 construct: gene Csa_2G427840; full-length cDNA in pACYCDuet, E. coli BL21(DE3); no targeting peptide predicted
T4 sequence (A0A0A0LN25 1-565): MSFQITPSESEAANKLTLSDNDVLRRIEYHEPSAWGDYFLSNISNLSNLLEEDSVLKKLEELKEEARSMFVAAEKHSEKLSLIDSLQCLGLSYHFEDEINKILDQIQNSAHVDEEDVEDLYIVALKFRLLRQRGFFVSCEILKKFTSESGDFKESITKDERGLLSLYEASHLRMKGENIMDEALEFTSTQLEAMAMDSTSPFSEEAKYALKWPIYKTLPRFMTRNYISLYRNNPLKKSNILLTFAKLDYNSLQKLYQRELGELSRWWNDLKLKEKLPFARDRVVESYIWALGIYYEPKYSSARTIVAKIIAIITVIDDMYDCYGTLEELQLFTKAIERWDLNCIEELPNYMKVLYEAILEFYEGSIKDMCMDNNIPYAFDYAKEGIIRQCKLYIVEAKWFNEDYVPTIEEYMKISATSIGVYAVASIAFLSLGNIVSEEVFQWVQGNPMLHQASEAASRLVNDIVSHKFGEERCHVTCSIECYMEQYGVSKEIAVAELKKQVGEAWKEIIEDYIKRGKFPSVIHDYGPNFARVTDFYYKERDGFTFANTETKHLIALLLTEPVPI

CsTPS22 = target: T5, CsTPS22 (Cucumis sativus, UniProt A0A0A0L2I8); details: 30 °C, 60 min; 10 µM substrate
T5 construct: gene Csa_3G097540; full-length cDNA in pACYCDuet, E. coli BL21(DE3)
T5 sequence (A0A0A0L2I8 1-558): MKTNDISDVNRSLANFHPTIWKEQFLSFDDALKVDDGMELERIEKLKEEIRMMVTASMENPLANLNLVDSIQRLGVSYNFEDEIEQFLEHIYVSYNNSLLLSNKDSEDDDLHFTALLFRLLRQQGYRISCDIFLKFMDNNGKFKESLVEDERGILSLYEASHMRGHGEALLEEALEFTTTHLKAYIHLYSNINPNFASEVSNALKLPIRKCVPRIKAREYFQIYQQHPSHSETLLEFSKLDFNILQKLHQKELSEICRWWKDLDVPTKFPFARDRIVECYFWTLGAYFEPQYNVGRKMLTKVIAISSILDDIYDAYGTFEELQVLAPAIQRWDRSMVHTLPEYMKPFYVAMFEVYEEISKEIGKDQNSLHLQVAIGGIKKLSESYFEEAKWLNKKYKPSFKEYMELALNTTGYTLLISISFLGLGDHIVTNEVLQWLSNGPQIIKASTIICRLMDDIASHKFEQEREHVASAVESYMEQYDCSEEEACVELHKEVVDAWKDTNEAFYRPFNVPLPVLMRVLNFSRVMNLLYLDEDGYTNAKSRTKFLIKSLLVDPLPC

CsTPS15 = target: T6, CsTPS15 (Cucumis sativus, UniProt A0A0A0L782); details: 30 °C, 60 min; 10 µM substrate
T6 construct: gene Csa_3G040850; full-length cDNA in pACYCDuet, E. coli BL21(DE3); predicted plastid transit peptide
T6 sequence (A0A0A0L782 1-568): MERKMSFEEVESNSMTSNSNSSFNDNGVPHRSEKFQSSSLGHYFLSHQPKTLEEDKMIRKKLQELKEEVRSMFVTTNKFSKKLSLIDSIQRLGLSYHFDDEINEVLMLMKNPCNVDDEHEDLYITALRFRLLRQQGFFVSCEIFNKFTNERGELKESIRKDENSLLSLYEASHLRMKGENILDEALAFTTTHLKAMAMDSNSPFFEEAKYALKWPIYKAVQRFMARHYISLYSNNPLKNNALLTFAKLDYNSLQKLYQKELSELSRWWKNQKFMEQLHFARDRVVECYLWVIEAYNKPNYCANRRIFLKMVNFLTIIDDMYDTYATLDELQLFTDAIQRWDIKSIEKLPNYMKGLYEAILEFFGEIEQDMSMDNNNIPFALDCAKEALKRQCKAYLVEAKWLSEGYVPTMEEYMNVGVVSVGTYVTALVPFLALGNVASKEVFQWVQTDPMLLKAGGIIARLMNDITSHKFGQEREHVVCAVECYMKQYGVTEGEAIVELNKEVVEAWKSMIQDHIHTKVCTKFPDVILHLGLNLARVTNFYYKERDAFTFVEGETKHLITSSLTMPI

CsTPS11 = target: T7, CsTPS11 (Cucumis sativus, UniProt A0A0A0LMX2); details: 30 °C, 60 min; 10 µM substrate
T7 construct: gene Csa_2G299920; full-length cDNA in pACYCDuet, E. coli BL21(DE3); predicted plastid transit peptide
T7 sequence (A0A0A0LMX2 1-474): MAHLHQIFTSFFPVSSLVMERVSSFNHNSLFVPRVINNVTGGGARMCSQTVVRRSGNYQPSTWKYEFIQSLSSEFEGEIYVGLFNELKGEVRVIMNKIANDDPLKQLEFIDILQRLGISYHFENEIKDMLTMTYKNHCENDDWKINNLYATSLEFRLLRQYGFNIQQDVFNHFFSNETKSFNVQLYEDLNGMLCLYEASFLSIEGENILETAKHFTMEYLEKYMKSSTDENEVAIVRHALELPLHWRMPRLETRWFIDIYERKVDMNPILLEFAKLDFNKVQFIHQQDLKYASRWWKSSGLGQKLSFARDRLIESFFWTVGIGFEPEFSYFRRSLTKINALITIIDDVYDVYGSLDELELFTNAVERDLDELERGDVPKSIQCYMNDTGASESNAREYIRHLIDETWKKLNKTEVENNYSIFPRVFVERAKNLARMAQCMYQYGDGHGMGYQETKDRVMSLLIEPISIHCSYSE

SMILES | product formation, stir-bar GC-MS, recombinant E. coli protein (CsTPS24; 10 µM substrate) | product formation, stir-bar GC-MS, recombinant E. coli protein (CsTPS19) | product formation, stir-bar GC-MS, recombinant E. coli protein (CsTPS14) | product formation, stir-bar GC-MS, recombinant E. coli protein (CsTPS12) | product formation, stir-bar GC-MS, recombinant E. coli protein (CsTPS22) | product formation, stir-bar GC-MS, recombinant E. coli protein (CsTPS24) | product formation, stir-bar GC-MS, recombinant E. coli protein (CsTPS15) | product formation, stir-bar GC-MS, recombinant E. coli protein (CsTPS11)
CC(C)=CCC/C(C)=C/CC/C(C)=C/COP(=O)(O)OP(=O)(O)O [FPP] | both enzymes produced (E)‐nerolidol from FPP | CsTPS19 predominantly catalysed the formation of (E,E)‐α‐farnesene from FPP | CsTPS12, CsTPS14 and CsTPS17, which all catalysed the formation of (E)‐β‐farnesene | CsTPS12, CsTPS14 and CsTPS17, which all catalysed the formation of (E)‐β‐farnesene | the major products of CsTPS22 were (E)‐nerolidol and cadinol | – | – | –
CC(C)=CCC/C(C)=C/CC/C(C)=C/CC/C(C)=C/COP(=O)(O)OP(=O)(O)O [GGPP] | – | – | – | – | – | only CsTPS24 accepted GGPP to produce geranyl linalool | – | –
CC(C)=CCC/C(C)=C/COP(=O)(O)OP(=O)(O)O [GPP] | – | CsTPS19 which efficiently catalysed the formation of (E)‐β‐ocimene, myrcene and linalool from GPP | – | – | – | – | CsTPS11 and CsTPS15 both catalysed the formation of myrcene, limonene | CsTPS11 and CsTPS15 both catalysed the formation of myrcene, limonene
